Where “and” joins values, the source holds several entries; their conditions need not be identical. Equal entries are not always repeated. Where two headings read alike, the source gives them in different places.
Tests used:
[1] = Water solubility of hinokitiol; type: physicochemical
Text: It has been said that the water solubility of hinokitiol as a single substance, in weight is maximum 0.2 weight %. However, in our experiment, we could not make it more than 0.1 weight %.
With this invention, by mixing hinokitiol with the extract of aloe vera, green tea, low striped bamboo and dokudami, it is possible to make a 1.0 weight % water solution without difficulty. In addition to the above mixture, we have succeeded in making 10 weight % of concentration of hinokitiol in water basis by adding glycerin fatty acid ester as surface active agent and cara saponine, which is an emulsifier. Alcohol (ethanol) is not required as an ingredient to achieve the above noted high concentration of hinokitiol.
It is known fact that with the addition of ethanol, it is possible to make 5 weight % water solution but for some foods, adding alcohol is not suitable and can change the taste of foods. Therefore, this invention of non-alcoholic water soluble disinfectant solution has particular significance.

[2] = system: Aspergillus niger (IFO 4414); test: Efficacy comparison (MIC method) of hinokitiol as single substance and the invented agent; type: cell-based; design: key: growth of bacteria is shown as “+”; no growth is shown as “−”; conditions: 7 days at 30° C.
Experimental: (§1) Escherihia coli (IFO 3972) and Aspergillus niger (IFO 4414) were used utilizing the minimum inhibitory method (MIC) to conduct a comparison testing the efficacy of hinokitiol as a single substance and the invented aqueous disinfectant.
(§2) Type II of the invented agent as previously described, having a hinokitiol concentration of 0.1 weight % (1000 ppm) was diluted 10 times, 20 times, 50 times, and 100 times and standard agar plate for E-coli and potato dextrose agar plate for aspergillus niger were prepared for each concentration. With hinokitiol as single substance, for 1000 g of water, 1 g of hinokitiol was used to make 0.1% solution, and this was diluted 10 times, 20 times, 50 times, and 100 times and standard agar plates and potato dextrose plates were prepared at each concentration. E-coli and aspergillus niger were implanted to the plate and cultivated for 7 days at 30° C. and the growth of the bacteria was observed. The result are shown in Table 4 below, where growth of bacteria is shown as “+”, and no growth is shown as “−”.

[3] = cited from earlier work
[4] = system: Escherihia coli (IFO 3972); test: Efficacy comparison (MIC method) of hinokitiol as single substance and the invented agent; type: cell-based, Escherichia coli; design: key to growth: growth of bacteria is shown as “+”; no growth is shown as “−”; conditions: 7 days at 30° C.
Experimental: as §1, §2

[5] = system: Salmonella typhimurium TA98; test: Reverse mutation screening assay; type: cell-based
Experimental: (§3) The test was conducted at Biosafety Research Center for Foods, Drugs and Pesticides, in Shizuoka, Japan.

[6] = system: Salmonella typhimurium TA100; test: Reverse mutation screening assay; type: cell-based
Experimental: as §3

[7] = 10 times dilution of 0.1 weight % hinokitiol solution
[8] = 20 times dilution of 0.1 weight % hinokitiol solution
[9] = 50 times dilution of 0.1 weight % hinokitiol solution
[10] = 100 times dilution of 0.1 weight % hinokitiol solution
[11] = positive control not requiring S9 mix, 0.1 μg/plate, Table 15
[12] = positive control not requiring S9 mix, 0.1 μg/plate, Table 16
[13] = positive control not requiring S9 mix, 0.01 μg/plate, Table 15
[14] = positive control not requiring S9 mix, 0.01 μg/plate, Table 16
[15] = positive control requiring S9 mix, 0.5 μg/plate, Table 15
[16] = positive control requiring S9 mix, 0.5 μg/plate, Table 16
[17] = positive control requiring S9 mix, 1.0 μg/plate, Table 15
[18] = positive control requiring S9 mix, 1.0 μg/plate, Table 16

CC(C)c1cccc(=O)c(O)c1 [Hinokitiol, β-Thujaplicin]
concentration of hinokitiol in water basis obtainable ([1]; extracts plus glycerin fatty acid ester and cara saponine, no alcohol): 10 weight % | water solubility of hinokitiol as a single substance, in our experiment ([1]; in water): ≤ 0.1 weight % | hinokitiol water solution obtainable ([1]; mixed with extract of aloe vera, green tea, low striped bamboo and dokudami): 1.0 weight % | growth [2, 7]: − | growth [2, 8]: + | growth [2, 9]: + | growth [2, 10]: + | water solubility of hinokitiol as a single substance, maximum as has been said ([3]; in water): ≤ 0.2 weight % | hinokitiol water solution obtainable ([3]; with the addition of ethanol, known fact): 5 weight % | growth [4, 7]: − | growth [4, 8]: + | growth [4, 9]: + | growth [4, 10]: + | hinokitiol concentration of the highest dilution that is effective (MIC method) ([4]; E-coli and Aspergillus niger): 0.01%

NC(=O)/C(=C\c1ccc([N+](=O)[O-])o1)c1ccco1 [AF-2]
No. of revertants, mean in parentheses [5, 11]: 733 colonies/plate | No. of revertants, single plates [5, 11]: 747 colonies/plate and 718 colonies/plate | No. of revertants, mean in parentheses [5, 12]: 692 colonies/plate | No. of revertants, single plates [5, 12]: 698 colonies/plate and 686 colonies/plate | No. of revertants, mean in parentheses [6, 13]: 370 colonies/plate | No. of revertants, single plates [6, 13]: 377 colonies/plate and 363 colonies/plate | No. of revertants, mean in parentheses [6, 14]: 410 colonies/plate | No. of revertants, single plates [6, 14]: 408 colonies/plate and 412 colonies/plate

Nc1ccc2cc3ccccc3cc2c1 [2-AA]
No. of revertants, mean in parentheses [5, 15]: 200 colonies/plate | No. of revertants, single plates [5, 15]: 203 colonies/plate and 196 colonies/plate | No. of revertants, mean in parentheses [5, 16]: 208 colonies/plate | No. of revertants, single plates [5, 16]: 197 colonies/plate and 219 colonies/plate | No. of revertants, mean in parentheses [6, 17]: 686 colonies/plate | No. of revertants, single plates [6, 17]: 683 colonies/plate and 688 colonies/plate | No. of revertants, mean in parentheses [6, 18]: 649 colonies/plate | No. of revertants, single plates [6, 18]: 647 colonies/plate and 650 colonies/plate
